Laboratory results from ChEMBL document CHEMBL3885881, “DrugMatrix”.

Organism: Rattus norvegicus
Assay: DrugMatrix - Regimen: Daily Repeat
Type: toxicity, organism-based, Sprague-Dawley
Set-up: regimen Daily Repeat, gender Male, age 6-8 weeks
Details: in vivo, iv, vehicle 100 % SALINE; for ABSOLUTE BASOPHIL / ABSOLUTE EOSINOPHIL / ABSOLUTE LYMPHOCYTE / ABSOLUTE MONOCYTE / ABSOLUTE SEGMENTED NEUTROPHIL / BASOPHIL / EOSINOPHIL / ERYTHROCYTE COUNT / HEMATOCRIT / HEMOGLOBIN / LEUKOCYTE COUNT / LYMPHOCYTE / MEAN CORPUSCULAR HEMOGLOBIN / MEAN CORPUSCULAR HEMOGLOBIN CONCENTRATION / MEAN CORPUSCULAR VOLUME / MONOCYTE / NEUTROPHIL / NUCLEATED RED BLOOD CELLS / PLATELET COUNT: tissue Blood; for ALANINE AMINOTRANSFERASE / ALBUMIN / ALKALINE PHOSPHATASE / ASPARTATE AMINOTRANSFERASE / BLOOD UREA NITROGEN / CARBON DIOXIDE / CHLORIDE / CHOLESTEROL / CREATINE PHOSPHOKINASE / CREATININE / GLUCOSE / LACTATE DEHYDROGENASE / LIPASE / PHOSPHORUS / POTASSIUM / SODIUM / TOTAL BILIRUBIN / TOTAL PROTEIN: tissue Plasma
[1] = 1 mg/kg, 72 h, dose level Low, time 3 day
[2] = 1 mg/kg, 120 h, dose level Low, time 5 day
[3] = 76 mg/kg, 72 h, dose level High, time 3 day
[4] = 76 mg/kg, 120 h, dose level High, time 5 day

C=CCN1CC[C@]23c4c5ccc(O)c4O[C@H]2C(=O)CC[C@@]3(O)[C@H]1C5 [NALOXONE]
ABSOLUTE BASOPHIL [1]: 0 CELLS/uL | ABSOLUTE EOSINOPHIL [1]: 394 CELLS/uL | ABSOLUTE LYMPHOCYTE [1]: 14212 CELLS/uL | ABSOLUTE MONOCYTE [1]: 229.67 CELLS/uL | ABSOLUTE SEGMENTED NEUTROPHIL [1]: 1597.67 CELLS/uL | BASOPHIL [1]: 0% | EOSINOPHIL [1]: 2.33% | ERYTHROCYTE COUNT [1]: 5.29 x10E6/uL | HEMATOCRIT [1]: 33.37% | HEMOGLOBIN [1]: 12.43 G/DL | LEUKOCYTE COUNT [1]: 16.43 x10E3/uL | LYMPHOCYTE [1]: 86.33% | MEAN CORPUSCULAR HEMOGLOBIN [1]: 23.5 pg | MEAN CORPUSCULAR HEMOGLOBIN CONCENTRATION [1]: 37.23 G/DL | MEAN CORPUSCULAR VOLUME [1]: 63.13 fL | MONOCYTE [1]: 1.33% | NEUTROPHIL [1]: 10% | NUCLEATED RED BLOOD CELLS [1]: 0 /100WBC | PLATELET COUNT [1]: 1087.33 x10E3/uL | ALANINE AMINOTRANSFERASE [1]: 52 u/L | ALBUMIN [1]: 4.2 G/DL | ALKALINE PHOSPHATASE [1]: 368.67 u/L | ASPARTATE AMINOTRANSFERASE [1]: 96 u/L | BLOOD UREA NITROGEN [1]: 16.33 mg/dL | CARBON DIOXIDE [1]: 26.67 mmol/L | CHLORIDE [1]: 103.67 MEQ/L | CHOLESTEROL [1]: 70.67 mg/dL | CREATINE PHOSPHOKINASE [1]: 678.67 u/L | CREATININE [1]: 0.2 mg/dL | GLUCOSE [1]: 178.33 mg/dL | LACTATE DEHYDROGENASE [1]: 116.67 u/L | LIPASE [1]: 9.67 u/L | PHOSPHORUS [1]: 12.63 mg/dL | POTASSIUM [1]: 6.32 MEQ/L | SODIUM [1]: 144.23 MEQ/L | TOTAL BILIRUBIN [1]: 0.2 mg/dL | TOTAL PROTEIN [1]: 5.9 G/DL | ABSOLUTE BASOPHIL [2]: 0 CELLS/uL | ABSOLUTE EOSINOPHIL [2]: 66.67 CELLS/uL | ABSOLUTE LYMPHOCYTE [2]: 9301.33 CELLS/uL | ABSOLUTE MONOCYTE [2]: 105.67 CELLS/uL | ABSOLUTE SEGMENTED NEUTROPHIL [2]: 1026.33 CELLS/uL | BASOPHIL [2]: 0% | EOSINOPHIL [2]: 0.67% | ERYTHROCYTE COUNT [2]: 5.74 x10E6/uL | HEMATOCRIT [2]: 35.87% | HEMOGLOBIN [2]: 13.53 G/DL | LEUKOCYTE COUNT [2]: 10.5 x10E3/uL | LYMPHOCYTE [2]: 88.67% | MEAN CORPUSCULAR HEMOGLOBIN [2]: 23.57 pg | MEAN CORPUSCULAR HEMOGLOBIN CONCENTRATION [2]: 37.73 G/DL | MEAN CORPUSCULAR VOLUME [2]: 62.5 fL | MONOCYTE [2]: 1% | NEUTROPHIL [2]: 9.67% | NUCLEATED RED BLOOD CELLS [2]: 0.33 /100WBC | PLATELET COUNT [2]: 1255.33 x10E3/uL | ALANINE AMINOTRANSFERASE [2]: 45.67 u/L | ALBUMIN [2]: 4.1 G/DL | ALKALINE PHOSPHATASE [2]: 363 u/L | ASPARTATE AMINOTRANSFERASE [2]: 88.67 u/L | BLOOD UREA NITROGEN [2]: 15.67 mg/dL | CARBON DIOXIDE [2]: 25 mmol/L | CHLORIDE [2]: 106 MEQ/L | CHOLESTEROL [2]: 63.67 mg/dL | CREATINE PHOSPHOKINASE [2]: 400.33 u/L | CREATININE [2]: 0.18 mg/dL | GLUCOSE [2]: 177.67 mg/dL | LACTATE DEHYDROGENASE [2]: 358 u/L | LIPASE [2]: 8.33 u/L | PHOSPHORUS [2]: 12.67 mg/dL | POTASSIUM [2]: 6.28 MEQ/L | SODIUM [2]: 144.83 MEQ/L | TOTAL BILIRUBIN [2]: 0.23 mg/dL | TOTAL PROTEIN [2]: 6.2 G/DL | ABSOLUTE BASOPHIL [3]: 0 CELLS/uL | ABSOLUTE EOSINOPHIL [3]: 219 CELLS/uL | ABSOLUTE LYMPHOCYTE [3]: 13357.67 CELLS/uL | ABSOLUTE MONOCYTE [3]: 239.33 CELLS/uL | ABSOLUTE SEGMENTED NEUTROPHIL [3]: 1117.33 CELLS/uL | BASOPHIL [3]: 0% | EOSINOPHIL [3]: 1.33% | ERYTHROCYTE COUNT [3]: 5.83 x10E6/uL | HEMATOCRIT [3]: 36.57% | HEMOGLOBIN [3]: 14.13 G/DL | LEUKOCYTE COUNT [3]: 14.93 x10E3/uL | LYMPHOCYTE [3]: 89.67% | MEAN CORPUSCULAR HEMOGLOBIN [3]: 24.23 pg | MEAN CORPUSCULAR HEMOGLOBIN CONCENTRATION [3]: 38.67 G/DL | MEAN CORPUSCULAR VOLUME [3]: 62.73 fL | MONOCYTE [3]: 1.67% | NEUTROPHIL [3]: 7.33% | NUCLEATED RED BLOOD CELLS [3]: 0 /100WBC | PLATELET COUNT [3]: 1424 x10E3/uL | ALANINE AMINOTRANSFERASE [3]: 46.67 u/L | ALBUMIN [3]: 4.23 G/DL | ALKALINE PHOSPHATASE [3]: 304.67 u/L | ASPARTATE AMINOTRANSFERASE [3]: 92.33 u/L | BLOOD UREA NITROGEN [3]: 15.67 mg/dL | CARBON DIOXIDE [3]: 24.33 mmol/L | CHLORIDE [3]: 110.67 MEQ/L | CHOLESTEROL [3]: 46 mg/dL | CREATINE PHOSPHOKINASE [3]: 383.33 u/L | CREATININE [3]: 0.12 mg/dL | GLUCOSE [3]: 104 mg/dL | LACTATE DEHYDROGENASE [3]: 123 u/L | LIPASE [3]: 7.67 u/L | PHOSPHORUS [3]: 14.33 mg/dL | POTASSIUM [3]: 5.64 MEQ/L | SODIUM [3]: 148.07 MEQ/L | TOTAL BILIRUBIN [3]: 0.1 mg/dL | TOTAL PROTEIN [3]: 6.3 G/DL | ABSOLUTE BASOPHIL [4]: 0 CELLS/uL | ABSOLUTE EOSINOPHIL [4]: 118.67 CELLS/uL | ABSOLUTE LYMPHOCYTE [4]: 15030.67 CELLS/uL | ABSOLUTE MONOCYTE [4]: 170.67 CELLS/uL | ABSOLUTE SEGMENTED NEUTROPHIL [4]: 1746.67 CELLS/uL | BASOPHIL [4]: 0% | EOSINOPHIL [4]: 0.67% | ERYTHROCYTE COUNT [4]: 5.72 x10E6/uL | HEMATOCRIT [4]: 35.6% | HEMOGLOBIN [4]: 13.43 G/DL | LEUKOCYTE COUNT [4]: 17.07 x10E3/uL | LYMPHOCYTE [4]: 88% | MEAN CORPUSCULAR HEMOGLOBIN [4]: 23.53 pg | MEAN CORPUSCULAR HEMOGLOBIN CONCENTRATION [4]: 37.77 G/DL | MEAN CORPUSCULAR VOLUME [4]: 62.37 fL | MONOCYTE [4]: 1% | NEUTROPHIL [4]: 10.33% | NUCLEATED RED BLOOD CELLS [4]: 0 /100WBC | PLATELET COUNT [4]: 1344.67 x10E3/uL | ALANINE AMINOTRANSFERASE [4]: 49.67 u/L | ALBUMIN [4]: 4.07 G/DL | ALKALINE PHOSPHATASE [4]: 305 u/L | ASPARTATE AMINOTRANSFERASE [4]: 80.33 u/L | BLOOD UREA NITROGEN [4]: 13.67 mg/dL | CARBON DIOXIDE [4]: 26.33 mmol/L | CHLORIDE [4]: 105 MEQ/L | CHOLESTEROL [4]: 52.33 mg/dL | CREATINE PHOSPHOKINASE [4]: 250.33 u/L | CREATININE [4]: 0.19 mg/dL | GLUCOSE [4]: 172.67 mg/dL | LACTATE DEHYDROGENASE [4]: 79 u/L | LIPASE [4]: 8 u/L | PHOSPHORUS [4]: 12.5 mg/dL | POTASSIUM [4]: 6.34 MEQ/L | SODIUM [4]: 144.67 MEQ/L | TOTAL BILIRUBIN [4]: 0.13 mg/dL | TOTAL PROTEIN [4]: 6.03 G/DL
